Measured values from US8551937B2, “Peptide having an extending action for half-life of object peptide in plasma” (priority 2008, dated 2013).
Where a SMILES comes first, the peptide text is derived from it. Bridges are numbered along the chain shown (N, C = ends). Where no end group is shown, it is not given here.

Experiments:
in vivo [1] = conditions: male, SD, rat, iv, 10 nmol/kg
Procedure: The experiment was carried out using rats into which polyethylene tube (PE-50 manufactured by Clay Adams) was previously inserted into thigh artery under an anesthetized condition with Nembutal. As to a test system, male SD strain rats (Nippon Charles River) of 7 weeks age were used where one group comprised 3 rats. Native CNP-22 or chimeric CNP in a dose of 10 nmol/kg was administered into tail vein of the rat and the blood before the administration and until 60 minutes after the administration was collected by a polyethylene tube inserted into the thigh artery. To the collected blood were added EDTA (manufactured by Dojin Laboratories) and aprotinin (manufactured by Bayer) as a stabilizer and an anti-coagulant, respectively and the plasma was separated therefrom by centrifugal separation. CNP immunoreactivity concentration in plasma was measured by a competitive radioimmunoassay (RIA). At that time, a rabbit polyclonal antibody (#2) which specifically recognizes the ring partial structure of the native CNP-22 was used as an antibody and, as a labeled compound, ^125I-[Tyr^0] CNP was used.

in vivo [2] = conditions: rat, iv
Procedure: Changes in CNP immunoreactivity concentration in plasma when the native CNP-22 shown by SEQ ID No: 101 was administered either solely or jointly with neutral endo-peptidase (NEP) inhibitor and compared with changes in CNP immunoreactivity concentration in plasma when native CNP-53 (SEQ ID No: 159) and the chimeric CNP (D) (structure mentioned already) were intravenously administered.
The experiment was conducted using rats where polyethylene tube (PE-50, manufactured by Clay Adams) was previously inserted into thigh artery under the anesthetized condition with Nembutal. In the group where the native CNP-22 was administered either solely or jointly with an NEP inhibitor, the polyethylene tube (PE-10, manufactured by Clay Adams) was also inserted into the thigh vein. As to a test system, male SD rats (Nippon Charles River) of 7 weeks age were used where one group comprised three rats. As to the NEP inhibitor, DL-Thiorphan (manufactured by Sigma) was used and, during the period from 10 minutes before the initiation of administration of the native CNP-22 until 60 minutes after the initiation of the administration where collection of the blood finished, 5% mannitol (100 μL/min/body) or NEP inhibitor (30 μg/100 μL/min/body) was subjected to a constant-speed intravenous administration for 70 minutes using an Infusion Pump (CFV 2100, manufactured by Nippon Koden K. K.). Native CNP-22, native CNP-53 or chimeric CNP (D) was administered into tail vein in a dose of 20 nmol/kg each and blood over the time from before administration and 60 minutes after administration was collected from a polyethylene tube inserted into the thigh artery. To the collected blood were added EDTA (Dojin Laboratories) and aprotinin (manufactured by Bayer) as a stabilizer and an anti-coagulant, respectively and the plasma was separated by means of centrifugal separation. CNP immunoreactivity concentration in the plasma was measured by a competitive radioimmunoassay (RIA). At that time, a rabbit polyclonal antibody (#2) which specifically recognizes a ring part structure which is the common structure for native CNP-22 and native CNP-53 was used as an antibody while, as a labeling compound, ^125I-[Tyr^0] CNP-22 was used.

Compound	half-life (in vivo [1]) [min]	half-life compared with native CNP-22, native CNP-22 together with NEP inhibitor and native CNP-53 (in vivo [2])	half-life (in vivo [2]; male, SD) [min]
CC[C@H](C)[C@@H]1NC(=O)[C@H](CCCNC(=N)N)NC(=O)[C@H](CC(=O)O)NC(=O)[C@H](CC(C)C)NC(=O)[C@H](CCCCN)NC(=O)[C@H](CC(C)C)NC(=O)CNC(=O)[C@H](Cc2ccccc2)NC(=O)[C@@H](NC(=O)CNC(=O)[C@H](CCCCN)NC(=O)[C@H](CO)NC(=O)[C@H](CC(C)C)NC(=O)CN)CSSC[C@@H](C(=O)N[C@H](C(=O)N[C@@H](CCC(N)=O)C(=O)N[C@@H](CCC(N)=O)C(=O)N[C@@H](CCCNC(=N)N)C(=O)N[C@@H](CCCCN)C(=O)N[C@@H](CCC(=O)O)C(=O)N[C@@H](CO)C(=O)N[C@@H](CCCCN)C(=O)N[C@@H](CCCCN)C(=O)N2CCC[C@H]2C(=O)N2CCC[C@H]2C(=O)N[C@@H](C)C(=O)N[C@@H](CCCCN)C(=O)N[C@@H](CC(C)C)C(=O)N[C@@H](CCC(N)=O)C(=O)N2CCC[C@H]2C(=O)N[C@@H](CCCNC(=N)N)C(=O)O)C(C)C)NC(=O)CNC(=O)[C@H](CC(C)C)NC(=O)CNC(=O)[C@H](CO)NC(=O)[C@H](CCSC)NC(=O)[C@H](CO)NC(=O)CNC1=O [Chimeric CNP (D)] (H-GLSKGCFGLKLDRIGSMSGLGCVQQRKESKKPPAKLQPR-OH; disulfide 6-22; N-terminus and C-terminus assumed)	20.3	longer half-life	–
CC[C@H](C)[C@@H]1NC(=O)[C@H](CCCNC(=N)N)NC(=O)[C@H](CC(=O)O)NC(=O)[C@H](CC(C)C)NC(=O)[C@H](CCCCN)NC(=O)[C@H](CC(C)C)NC(=O)CNC(=O)[C@H](Cc2ccccc2)NC(=O)[C@@H](NC(=O)[C@@H](NC(=O)[C@H](CCC(N)=O)NC(=O)[C@H](CCC(N)=O)NC(=O)[C@H](CCCNC(=N)N)NC(=O)[C@H](CCCCN)NC(=O)[C@H](CCC(=O)O)NC(=O)[C@H](CO)NC(=O)[C@H](CCCCN)NC(=O)[C@H](CCCCN)NC(=O)[C@@H]2CCCN2C(=O)[C@@H]2CCCN2C(=O)[C@H](C)NC(=O)[C@H](CCCCN)NC(=O)[C@H](CC(C)C)NC(=O)[C@H](CCC(N)=O)NC(=O)[C@@H]2CCCN2C(=O)[C@@H](N)CCCNC(=N)N)C(C)C)CSSC[C@@H](C(=O)O)NC(=O)CNC(=O)[C@H](CC(C)C)NC(=O)CNC(=O)[C@H](CO)NC(=O)[C@H](CCSC)NC(=O)[C@H](CO)NC(=O)CNC1=O [Chimeric CNP (H)] (H-RPQLKAPPKKSEKRQQVCFGLKLDRIGSMSGLGC-OH; disulfide 18-34; N-terminus and C-terminus assumed)	14.9	–	–
CC[C@H](C)[C@@H]1NC(=O)[C@H](CCCNC(=N)N)NC(=O)[C@H](CC(=O)O)NC(=O)[C@H](CC(C)C)NC(=O)[C@H](CCCCN)NC(=O)[C@H](CC(C)C)NC(=O)CNC(=O)[C@H](Cc2ccccc2)NC(=O)[C@@H](N)CSSC[C@@H](C(=O)N[C@H](C(=O)N[C@@H](CCC(N)=O)C(=O)N[C@@H](CCC(N)=O)C(=O)N[C@@H](CCCNC(=N)N)C(=O)N[C@@H](CCCCN)C(=O)N[C@@H](CCC(=O)O)C(=O)N[C@@H](CO)C(=O)N[C@@H](CCCCN)C(=O)N[C@@H](CCCCN)C(=O)N2CCC[C@H]2C(=O)N2CCC[C@H]2C(=O)N[C@@H](C)C(=O)N[C@@H](CCCCN)C(=O)N[C@@H](CC(C)C)C(=O)N[C@@H](CCC(N)=O)C(=O)N2CCC[C@H]2C(=O)N[C@@H](CCCNC(=N)N)C(N)=O)C(C)C)NC(=O)CNC(=O)[C@H](CC(C)C)NC(=O)CNC(=O)[C@H](CO)NC(=O)[C@H](CCSC)NC(=O)[C@H](CO)NC(=O)CNC1=O [Chimeric CNP (I)] (H-CFGLKLDRIGSMSGLGCVQQRKESKKPPAKLQPR-NH2; disulfide 1-17; N-terminus assumed)	14.5	–	–
CC[C@H](C)[C@@H]1NC(=O)[C@H](CCCNC(=N)N)NC(=O)[C@H](CC(=O)O)NC(=O)[C@H](CC(C)C)NC(=O)[C@H](CCCCN)NC(=O)[C@H](CC(C)C)NC(=O)CNC(=O)[C@H](Cc2ccccc2)NC(=O)[C@@H](NC(=O)CNC(=O)[C@H](CCCCN)NC(=O)[C@H](CO)NC(=O)[C@H](CC(C)C)NC(=O)CNC(=O)[C@H](CCCCN)NC(=O)[C@H](CCCCN)NC(=O)[C@H](CC(N)=O)NC(=O)[C@H](C)NC(=O)CNC(=O)[C@H](CCCCN)NC(=O)[C@H](Cc2ccc(O)cc2)NC(=O)[C@H](CCCCN)NC(=O)[C@H](CCCNC(=N)N)NC(=O)[C@H](C)NC(=O)[C@H](CC(N)=O)NC(=O)[C@@H]2CCCN2C(=O)[C@H](Cc2c[nH]cn2)NC(=O)[C@H](CCC(=O)O)NC(=O)[C@H](CCC(N)=O)NC(=O)[C@H](CC(C)C)NC(=O)[C@H](CC(C)C)NC(=O)[C@H](CCCNC(=N)N)NC(=O)[C@H](C)NC(=O)[C@H](Cc2c[nH]c3ccccc23)NC(=O)[C@H](C)NC(=O)[C@H](C)NC(=O)[C@H](CCCNC(=N)N)NC(=O)[C@H](CO)NC(=O)[C@H](CCCCN)NC(=O)[C@@H](NC(=O)[C@H](CC(=O)O)NC(=O)[C@@H](NC(=O)[C@H](CCCNC(=N)N)NC(=O)[C@H](CC(C)C)NC(=O)[C@@H](N)CC(=O)O)C(C)C)[C@@H](C)O)CSSC[C@@H](C(=O)O)NC(=O)CNC(=O)[C@H](CC(C)C)NC(=O)CNC(=O)[C@H](CO)NC(=O)[C@H](CCSC)NC(=O)[C@H](CO)NC(=O)CNC1=O [Native CNP-53]	–	–	15.7
RPQLKAPPKKSEKRQQVCFGLKLDRIGSMSGLGCVQQRKESKKPPAKLQPR (disulfide 18-34) [Chimeric CNP (F)]	17.4	–	–
VQQRKESKKPPAKLQPRCFGLKLDRIGSMSGLGCVQQRKESKKPPAKLQPR (disulfide 18-34) [Chimeric CNP (E)]	18.4	–	–
